# Values joined by “and” are separate entries in the source; they are usually repeats but may differ in a detail not shown here. Identical values can stand only once. Where a SMILES comes first, the peptide text is derived from it. [ ]: non-standard residue; d: D form. Hyp = O=C(O)[C@@H]1C[C@@H](O)CN1
# System: IL-1 beta/IL-1F2
# Assay: Example 9 Luminex, LPS hPBMCs: IL-1 beta/IL-1F2
# Format: cell-based, human
# Procedure: Treatment Human PBMCs were pretreated with YY-101, YDE-011 and YDE-043 or reference compound; Xiidra® at various concentration (ranging from 1 nM to 100 uM) for 2 h before stimulation. An equal volume of 0.5% DMSO was used as a vehicle control. Then, the cells were treated with LPS at 5 ug/ml. The supernatants from treated cells were harvested at 24 h and placed in a 96 well for Luminex cytokine & chemokine profiling using a Luminex 200 multiplex assay (Luminex; R&D system, USA).
# The main study arm with triplicate wells per group in a 24-well plate: • 1. Blank • 2. PBMC: 0.5% DMSO • 3. PBMC+LPS (5 ug/ml) • 4. PBMC+YY-101 100 uM • 5. PBMC+YY-101 10 uM • 6. PBMC+YY-101 1 uM • 7. PBMC+YY-101 0.1 uM • 8. PBMC+YY-101 0.01 uM • 9. PBMC+LPS (5 ug/ml)+Xiidra®100 uM • 10. PBMC+LPS (5 ug/ml)+Xiidra® 10 uM • 11. PBMC+LPS (5 ug/ml)+Xiidra® 1 uM • 12. PBMC+LPS (5 ug/ml)+Xiidra®0.1 uM • 13. PBMC+LPS (5 ug/ml)+Xiidra®0.01 uM • 14. PBMC+LPS (5 ug/ml)+Xiidra®0.001 uM • 15. PBMC+LPS (5 ug/ml)+YY-101 100 uM • 16. PBMC+LPS (5 ug/ml)+YY-101 10 uM • 17. PBMC+LPS (5 ug/ml)+YY-101 1 uM • 18. PBMC+LPS (5 ug/ml)+YY-101 0.1 uM • 19. PBMC+LPS (5 ug/ml)+YY-101 0.01 uM • 20. PBMC+LPS (5 ug/ml)+YY-101 0.001 uM • 21. PBMC+LPS (5 ug/ml)+YDE-011 100 uM • 22. PBMC+LPS (5 ug/ml)+YDE-011 10 uM • 23. PBMC+LPS (5 ug/ml)+YDE-011 1 uM • 24. PBMC+LPS (5 ug/ml)+YDE-011 0.1 uM • 25. PBMC+LPS (5 ug/ml)+YDE-011 0.01 uM • 26. PBMC+LPS (5 ug/ml)+YDE-011 0.001 uM • 27. PBMC+LPS (5 ug/ml)+YDE-043 100 uM • 28. PBMC+LPS (5 ug/ml)+YDE-043 10 uM • 29. PBMC+LPS (5 ug/ml)+YDE-043 1 uM • 30. PBMC+LPS (5 ug/ml)+YDE-043 0.1 uM • 31. PBMC+LPS (5 ug/ml)+YDE-043 0.01 uM • 32. PBMC+LPS (5 ug/ml)+YDE-043 0.001 uM
# Multiplex assay was used to measure 30 cytokines and chemokines. The 1:2, 1:10 and 1:200 diluted cell supernatant and serial dilution of the standard were dispensed into a 96 well plate at 50 ul/well. Then, the pre-mixed cocktail of antibody-coated magnetic beads was dispensed at 50 ul/well and incubated at room temperature for 2 h in a horizontal orbital microplate shaker at 800±500 rpm. The beads were washed using a magnetic device to prevent loss. The biotin-antibody was dispensed in 50 ul of each well and incubated at room temperature for 1 h in a shaker at 800±500 rpm. After washing, streptavidin-PE was added at 50 ul/well and incubated at room temperature for 30 min in a shaker under the same conditions. Finally, after washing, wash buffer (100 ul/well) was added to the plate and incubated in a shaker for 2 min. The Luminex™ 200 setting were set according to the manufacturer's protocol. The data was calculated with a standard five-parameter logistic nonlinear regression analysis of the data (xPonent software 4.2, USA). The levels of cytokine/chemokine are normalized to the live cell counts (1×10^5 cells/mL) and presented as concentrations per mL (pg/mL or ng/mL).
# [1] = PBMC + LPS(5 ug/ml) + test article 0.001 uM, Mean
# [2] = PBMC + LPS(5 ug/ml) + test article 0.001 uM, single replicates
# [3] = PBMC + LPS(5 ug/ml) + test article 0.01 uM, Mean
# [4] = PBMC + LPS(5 ug/ml) + test article 0.01 uM, single replicates
# [5] = PBMC + LPS(5 ug/ml) + test article 0.1 uM, Mean
# [6] = PBMC + LPS(5 ug/ml) + test article 0.1 uM, single replicates
# [7] = PBMC + LPS(5 ug/ml) + test article 1 uM, Mean
# [8] = PBMC + LPS(5 ug/ml) + test article 1 uM, single replicates
# [9] = PBMC + LPS(5 ug/ml) + test article 10 uM, Mean
# [10] = PBMC + LPS(5 ug/ml) + test article 10 uM, single replicates
# [11] = PBMC + LPS(5 ug/ml) + test article 100 uM, Mean
# [12] = PBMC + LPS(5 ug/ml) + test article 100 uM, single replicates
# [13] = PBMC + test article 0.01 uM, no LPS, Mean
# [14] = PBMC + test article 0.01 uM, no LPS, single replicates
# [15] = PBMC + test article 0.1 uM, no LPS, Mean
# [16] = PBMC + test article 0.1 uM, no LPS, single replicates
# [17] = PBMC + test article 1 uM, no LPS, Mean
# [18] = PBMC + test article 1 uM, no LPS, single replicates
# [19] = PBMC + test article 10 uM, no LPS, Mean
# [20] = PBMC + test article 10 uM, no LPS, single replicates
# [21] = PBMC + test article 100 uM, no LPS, Mean
# [22] = PBMC + test article 100 uM, no LPS, single replicates
structure (smiles),measurement,setting,value
CC(C)C[C@H](NC(=O)CNC(=O)[C@H](CC(=O)O)NC(=O)[C@H](CCC(N)=O)NC(=O)CNC(=O)[C@@H]1C[C@@H](O)CN1)C(=O)N[C@@H](C)C(=O)NCC(=O)N1CCC[C@H]1C(=O)N[C@@H](CCCCN)C(=O)O [YY-101] (H-[Hyp]GQDGLAGPK-OH; N-terminus and C-terminus assumed),Concentration,[1],7614.6 pg/mL
same,MFI,[1],1976.7
same,conc/live cell,[1],1188.6 pg/10^5
same,Concentration,[2],7907.5 pg/mL and 7935.5 pg/mL and 7000.7 pg/mL
same,MFI,[2],2055.5 and 2063.0 and 1811.5
same,conc/live cell,[2],1387.3 pg/10^5 and 1117.7 pg/10^5 and 1060.7 pg/10^5
same,Concentration,[3],8390.1 pg/mL
same,MFI,[3],2184.3
same,conc/live cell,[3],1361.7 pg/10^5
same,Concentration,[4],8405.7 pg/mL and 8552.3 pg/mL and 8212.4 pg/mL
same,MFI,[4],2188.5 and 2227.5 and 2137.0
same,conc/live cell,[4],1313.4 pg/10^5 and 1425.4 pg/10^5 and 1346.3 pg/10^5
same,Concentration,[5],8511.2 pg/mL
same,MFI,[5],2216.5
same,conc/live cell,[5],1463.1 pg/10^5
same,Concentration,[6],8266.8 pg/mL and 8740.8 pg/mL and 8526.0 pg/mL
same,MFI,[6],2151.5 and 2277.5 and 2220.5
same,conc/live cell,[6],1333.4 pg/10^5 and 1680.9 pg/10^5 and 1375.2 pg/10^5
same,Concentration,[7],7838.4 pg/mL
same,MFI,[7],2036.8
same,conc/live cell,[7],1203.9 pg/10^5
same,Concentration,[8],8218.0 pg/mL and 7821.7 pg/mL and 7475.4 pg/mL
same,MFI,[8],2138.5 and 2032.5 and 1939.5
same,conc/live cell,[8],1304.4 pg/10^5 and 1101.6 pg/10^5 and 1205.7 pg/10^5
same,Concentration,[9],8659.2 pg/mL
same,MFI,[9],2255.8
same,conc/live cell,[9],1311.5 pg/10^5
same,Concentration,[10],8518.5 pg/mL and 8816.3 pg/mL and 8642.7 pg/mL
same,MFI,[10],2218.5 and 2297.5 and 2251.5
same,conc/live cell,[10],1419.7 pg/10^5 and 1377.5 pg/10^5 and 1137.2 pg/10^5
same,Concentration,[11],12179.5 pg/mL
same,MFI,[11],3163.2
same,conc/live cell,[11],2105.8 pg/10^5
same,Concentration,[12],12944.3 pg/mL and 11783.1 pg/mL and 11811.0 pg/mL
same,MFI,[12],3353.5 and 3064.5 and 3071.5
same,conc/live cell,[12],2054.7 pg/10^5 and 1900.5 pg/10^5 and 2362.2 pg/10^5
same,Concentration,[13],5.5 pg/mL
same,MFI,[13],2.5
same,conc/live cell,[13],0.6 pg/10^5
same,Concentration,[14],5.5 pg/mL
same,MFI,[14],0.5 and 4.5
same,conc/live cell,[14],0.0 pg/10^5 and 1.2 pg/10^5
same,MFI,[15],1.5
same,conc/live cell,[15],0.0 pg/10^5
same,MFI,[16],1.5
same,conc/live cell,[16],0.0 pg/10^5
same,MFI,[17],2.0
same,conc/live cell,[17],0.0 pg/10^5
same,MFI,[18],3.5 and 0.5
same,conc/live cell,[18],0.0 pg/10^5
same,Concentration,[19],122.9 pg/mL
same,MFI,[19],13.0
same,conc/live cell,[19],9.6 pg/10^5
same,Concentration,[20],122.9 pg/mL
same,MFI,[20],23.5 and 2.5
same,conc/live cell,[20],19.2 pg/10^5 and 0.0 pg/10^5
same,Concentration,[21],159.6 pg/mL
same,MFI,[21],31.5
same,conc/live cell,[21],24.7 pg/10^5
same,Concentration,[22],278.4 pg/mL and 40.7 pg/mL
same,MFI,[22],53.5 and 9.5
same,conc/live cell,[22],43.5 pg/10^5 and 5.8 pg/10^5
same,LPS-induced IL-I3 levels (in words),"at 100.iM, LPS 5 ug/mL 24 hrs",further increased
CC(C)C[C@H](NC(=O)CNC(=O)[C@H](CC(C)C)NC(=O)[C@H](CCC(N)=O)NC(=O)CNC(=O)[C@@H]1C[C@@H](O)CN1)C(=O)N[C@@H](C)C(=O)NCC(=O)N1CCC[C@H]1C(=O)N[C@@H](CCCCN)C(=O)O [YDE-011] (H-[Hyp]GQLGLAGPK-OH),Concentration,[1],6481.9 pg/mL
same,MFI,[1],1671.0
same,conc/live cell,[1],1225.5 pg/10^5
same,Concentration,[2],6498.5 pg/mL and 6544.6 pg/mL and 6402.7 pg/mL
same,MFI,[2],1675.5 and 1688.0 and 1649.5
same,conc/live cell,[2],1444.1 pg/10^5 and 1128.4 pg/10^5 and 1103.9 pg/10^5
same,Concentration,[3],6567.3 pg/mL
same,MFI,[3],1694.2
same,conc/live cell,[3],1128.7 pg/10^5
same,Concentration,[4],6557.5 pg/mL and 6476.4 pg/mL and 6668.1 pg/mL
same,MFI,[4],1691.5 and 1669.5 and 1721.5
same,conc/live cell,[4],1057.7 pg/10^5 and 1269.9 pg/10^5 and 1058.4 pg/10^5
same,Concentration,[5],6345.6 pg/mL
same,MFI,[5],1634.0
same,conc/live cell,[5],1115.2 pg/10^5
same,Concentration,[6],6305.1 pg/mL and 6376.9 pg/mL and 6354.8 pg/mL
same,MFI,[6],1623.0 and 1642.5 and 1636.5
same,conc/live cell,[6],955.3 pg/10^5 and 1275.4 pg/10^5 and 1114.9 pg/10^5
same,Concentration,[7],6587.0 pg/mL
same,MFI,[7],1699.5
same,conc/live cell,[7],1314.4 pg/10^5
same,Concentration,[8],6553.8 pg/mL and 6454.2 pg/mL and 6753.1 pg/mL
same,MFI,[8],1690.5 and 1663.5 and 1744.5
same,conc/live cell,[8],1191.6 pg/10^5 and 1344.6 pg/10^5 and 1406.9 pg/10^5
same,Concentration,[9],6933.0 pg/mL
same,MFI,[9],1793.2
same,conc/live cell,[9],1319.4 pg/10^5
same,Concentration,[10],7010.0 pg/mL and 6782.6 pg/mL and 7006.3 pg/mL
same,MFI,[10],1814.0 and 1752.5 and 1813.0
same,conc/live cell,[10],1298.1 pg/10^5 and 1169.4 pg/10^5 and 1490.7 pg/10^5
same,Concentration,[11],8675.0 pg/mL
same,MFI,[11],2260.0
same,conc/live cell,[11],1430.0 pg/10^5
same,Concentration,[12],8497.8 pg/mL and 8918.4 pg/mL and 8608.8 pg/mL
same,MFI,[12],2213.0 and 2324.5 and 2242.5
same,conc/live cell,[12],1393.1 pg/10^5 and 1462.0 pg/10^5 and 1434.8 pg/10^5

# — patent US20230146455A1, “TREATMENT OF INFLAMMATORY DISEASES WITH PEPTIDES AND PHARMACEUTICAL COMPOSITIONS” (Yuyu Pharma, Inc., priority 2020, published 2023)
